Source: the supplement of paper PMC11061612

Experiments:
Test in all cases: Bliss excess, mean over the matrix (fraction); higher = more synergy
[1] = tested on: T-T (Esophageal Squamous Cell Carcinoma)
How it was run: (§1)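 Bliss excess equals the observed combination effect minus the expected value EA + EB − EA·EB, where EA and EB are the effects of each agent alone. Combination Emax is the second-highest inhibition within the matrix. Inhibition was scaled from CellTiter-Glo 2.0 luminescence, with 0 set by vehicle wells and 1 by blank wells, after 72 hours of two-drug dosing of cells plated in 1536-well plates.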

[2] = tested on: MOLM-13 (Acute Myeloid Leukemia)
How it was run: as §1

[3] = tested on: ST486 (Burkitt's Lymphoma)
How it was run: as §1

M059J (Glioblastoma) = tested on: M059J (Glioblastoma)
How it was run: as §1

[4] = tested on: IM-95 (Gastric Carcinoma)
How it was run: as §1

[5] = tested on: NCI-H526 (Small Cell Lung Carcinoma)
How it was run: as §1

[6] = tested on: SK-GT-2 (Gastric Carcinoma)
How it was run: as §1

[7] = tested on: MN-60 (B-Lymphoblastic Leukemia)
How it was run: as §1

SJSA-1 (Osteosarcoma) = tested on: SJSA-1 (Osteosarcoma)
How it was run: as §1

[8] = tested on: HCC1187 (Breast Carcinoma)
How it was run: as §1

[9] = tested on: KP-3 (Pancreatic Carcinoma)
How it was run: as §1

[10] = tested on: KYSE-270 (Esophageal Squamous Cell Carcinoma)
How it was run: as §1

[11] = tested on: CHSA8926 (Chondrosarcoma)
How it was run: as §1

[12] = tested on: DAN-G (Pancreatic Carcinoma)
How it was run: as §1

NCI-H2731 (Mesothelioma) = tested on: NCI-H2731 (Mesothelioma)
How it was run: as §1

[13] = tested on: NCI-H520 (Squamous Cell Lung Carcinoma)
How it was run: as §1

[14] = tested on: ESO51 (Esophageal Adenocarcinoma)
How it was run: as §1

[15] = tested on: KMS-12-BM (Plasma Cell Myeloma)
How it was run: as §1

[16] = tested on: HCC1419 (Breast Carcinoma)
How it was run: as §1

[17] = tested on: SNU-398 (Hepatocellular Carcinoma)
How it was run: as §1

COc1cc2c(cc1OCCCCCOc1cc3c(cc1OC)C(=O)N1C=C(C)C[C@H]1C=N3)N=C[C@@H]1CC(C)=CN1C2=O [SG3199] + O=C(c1cc(Cc2n[nH]c(=O)c3ccccc23)ccc1F)N1CCN(C(=O)C2CC2)CC1 [Olaparib] (first compound max 0.001 µM, 7x7, partner max 10 µM)
Bliss excess [1]: -0.0418
Bliss excess [2]: 0.0049
Bliss excess [3]: -0.0258
Bliss excess (M059J (Glioblastoma)): -0.037
Bliss excess [4]: -0.0392
Bliss excess [5]: -0.0148
Bliss excess [6]: -0.0066
Bliss excess [7]: -0.027
Bliss excess (SJSA-1 (Osteosarcoma)): -0.0252
Bliss excess [8]: -0.006
Bliss excess [9]: -0.0424
Bliss excess [10]: -0.0595
Bliss excess [11]: -0.0566
Bliss excess [12]: -0.0266
Bliss excess (NCI-H2731 (Mesothelioma)): -0.0505
Bliss excess [13]: -0.0503
Bliss excess [14]: -0.0129
Bliss excess [15]: 0.0202
Bliss excess [16]: -0.119
Bliss excess [17]: -0.0322

Cn1cnc2c(F)c(Nc3ccc(Br)cc3Cl)c(C(=O)NOCCO)cc21 [Selumetinib] + CCN(CCO)CCCOc1ccc2c(Nc3cc(CC(=O)Nc4cccc(F)c4)[nH]n3)ncnc2c1 [AZD2811] (first compound max 10 µM, 7x7, partner max 1 µM)
Bliss excess [1]: -0.0072
Bliss excess [2]: 0.0359
Bliss excess [3]: 0.0872
Bliss excess (M059J (Glioblastoma)): -0.033
Bliss excess [4]: 0.0874
Bliss excess [5]: -0.017
Bliss excess [6]: -0.0443
Bliss excess [7]: -0.0202
Bliss excess (SJSA-1 (Osteosarcoma)): -0.0705
Bliss excess [8]: -0.0374
Bliss excess [9]: -0.0293
Bliss excess [10]: 0.0103
Bliss excess [11]: -0.0593
Bliss excess [12]: 0.0445
Bliss excess (NCI-H2731 (Mesothelioma)): -0.0293
Bliss excess [13]: -0.0221
Bliss excess [14]: 0.0567
Bliss excess [15]: 0.0832
Bliss excess [16]: -0.0451
Bliss excess [17]: 0.0026

CN(CCO)CC[C@H](CSc1ccccc1)Nc1ccc(S(=O)(=O)NC(=O)c2ccc(N3CCC([C@@H](O)c4ccccc4-c4ccc(Cl)cc4)CC3)cc2)cc1S(=O)(=O)C(F)(F)F [AZD4320] + Cn1cnc2c(F)c(Nc3ccc(Br)cc3Cl)c(C(=O)NOCCO)cc21 [Selumetinib] (first compound max 1 µM, 7x7, partner max 3 µM)
Bliss excess [1]: 0.0564
Bliss excess [2]: 0.0296
Bliss excess [3]: 0.0086
Bliss excess (M059J (Glioblastoma)): -0.0289
Bliss excess [4]: 0.0132
Bliss excess [5]: -0.0061
Bliss excess [6]: 0.0177
Bliss excess [7]: 0.0026
Bliss excess (SJSA-1 (Osteosarcoma)): 0.0413
Bliss excess [8]: 0.0264
Bliss excess [9]: 0.0111
Bliss excess [10]: 0.0148
Bliss excess [11]: -0.0256
Bliss excess [12]: 0.04
Bliss excess (NCI-H2731 (Mesothelioma)): -0.0124
Bliss excess [13]: -0.0205
Bliss excess [14]: 0.0355
Bliss excess [15]: -0.024
Bliss excess [16]: -0.0211
Bliss excess [17]: 0.0783

CCN(CCO)CCCOc1ccc2c(Nc3cc(CC(=O)Nc4cccc(F)c4)[nH]n3)ncnc2c1 [AZD2811] + C[C@@H]1COCCN1C2=NC(=NC(=C2)C3(CC3)[S@](=N)(=O)C)C4=C5C=CNC5=NC=C4 [AZD6738] (first compound max 1 µM, 7x7, partner max 10 µM)
Bliss excess [1]: -0.0105
Bliss excess [2]: -0.0161
Bliss excess [3]: -0.0205
Bliss excess (M059J (Glioblastoma)): -0.0138
Bliss excess [4]: 0.0291
Bliss excess [5]: -0.0178
Bliss excess [6]: -0.0272
Bliss excess [7]: -0.0215
Bliss excess (SJSA-1 (Osteosarcoma)): -0.0348
Bliss excess [8]: -0.0841
Bliss excess [9]: -0.0582
Bliss excess [10]: -0.0449
Bliss excess [11]: -0.0037
Bliss excess [12]: -0.0427
Bliss excess (NCI-H2731 (Mesothelioma)): -0.0668
Bliss excess [13]: -0.0834
Bliss excess [14]: -0.0567
Bliss excess [15]: 0.0141
Bliss excess [16]: -0.0757
Bliss excess [17]: 0.007

Cc1cc2ncnn2cc1Nc1ncc2c(n1)n(C1CCOCC1)c(=O)n2C [AZD7648] + CN(C)CCCOc1ccc(-c2ccc3ncc4c(c3c2)n(C2CCOCC2)c(=O)n4C)cn1 [AZD0156] (first compound max 10 µM, 7x7, partner max 1 µM)
Bliss excess [1]: 0.0269
Bliss excess [2]: 0.0085
Bliss excess [3]: -0.0071
Bliss excess (M059J (Glioblastoma)): 0.0149
Bliss excess [4]: 0.0121
Bliss excess [5]: 0.0429
Bliss excess [6]: -0.0011
Bliss excess [7]: -0.0405
Bliss excess (SJSA-1 (Osteosarcoma)): -0.0385
Bliss excess [8]: -0.0086
Bliss excess [9]: 0.0074
Bliss excess [10]: -0.0004
Bliss excess [11]: 0.0091
Bliss excess [12]: -0.0168
Bliss excess (NCI-H2731 (Mesothelioma)): -0.0326
Bliss excess [13]: 0.0833
Bliss excess [14]: -0.0151
Bliss excess [15]: 0.0032
Bliss excess [16]: -0.0515
Bliss excess [17]: -0.0273

CC1(C)CCC(CN2CCN(c3ccc(C(=O)NS(=O)(=O)c4ccc(NCC5CCOCC5)c([N+](=O)[O-])c4)c(Oc4cnc5[nH]ccc5c4)c3)CC2)=C(c2ccc(Cl)cc2)C1 [Venetoclax] + CN(C)CCCOc1ccc(-c2ccc3ncc4c(c3c2)n(C2CCOCC2)c(=O)n4C)cn1 [AZD0156] (first compound max 1 µM, 7x7, partner max 1 µM)
Bliss excess [1]: 0.0197
Bliss excess [2]: -0.126
Bliss excess [3]: 0.0106
Bliss excess (M059J (Glioblastoma)): -0.0173
Bliss excess [4]: -0.0016
Bliss excess [5]: 0.0393
Bliss excess [6]: 0.005
Bliss excess [7]: -0.0045
Bliss excess (SJSA-1 (Osteosarcoma)): -0.0358
Bliss excess [8]: -0.0071
Bliss excess [9]: -0.042
Bliss excess [10]: 0.0107
Bliss excess [11]: -0.0249
Bliss excess [12]: -0.0268
Bliss excess (NCI-H2731 (Mesothelioma)): -0.029
Bliss excess [13]: -0.048
Bliss excess [14]: -0.014
Bliss excess [15]: 0.0078
Bliss excess [16]: -0.0156
Bliss excess [17]: -0.0081

C=CCn1c(=O)c2cnc(Nc3ccc(N4CCN(C)CC4)cc3)nc2n1-c1cccc(C(C)(C)O)n1 [AZD1775] + C[C@@H]1COCCN1C2=NC(=NC(=C2)C3(CC3)[S@](=N)(=O)C)C4=C5C=CNC5=NC=C4 [AZD6738] (first compound max 1 µM, partner max 10 µM)
Bliss excess [1]: 0.0089
Bliss excess [2]: 0.0233
Bliss excess [3]: -0.0044
Bliss excess (M059J (Glioblastoma)): -0.0206
Bliss excess [4]: 0.0804
Bliss excess [5]: 0.0576
Bliss excess [6]: -0.0189
Bliss excess [7]: 0.0165
Bliss excess (SJSA-1 (Osteosarcoma)): 0.0047
Bliss excess [8]: 0.0558
Bliss excess [9]: -0.0075
Bliss excess [10]: 0.0567
Bliss excess [11]: -0.0268
Bliss excess [12]: -0.0079
Bliss excess (NCI-H2731 (Mesothelioma)): 0.0444
Bliss excess [13]: -0.0133
Bliss excess [14]: -0.0247
Bliss excess [15]: 0.0418
Bliss excess [16]: -0.0034
Bliss excess [17]: -0.0067

CC1(C)CCC(CN2CCN(c3ccc(C(=O)NS(=O)(=O)c4ccc(NCC5CCOCC5)c([N+](=O)[O-])c4)c(Oc4cnc5[nH]ccc5c4)c3)CC2)=C(c2ccc(Cl)cc2)C1 [Venetoclax] + C[C@@H](Nc1cc(F)cc(F)c1)c1cc(C(=O)N(C)C)cc2c(=O)cc(N3CCOCC3)oc12 [AZD8186] (first compound max 1 µM, 7x7, partner max 3 µM)
Bliss excess [1]: 0.0094
Bliss excess [2]: 0.0046
Bliss excess [3]: -0.0686
Bliss excess (M059J (Glioblastoma)): -0.0141
Bliss excess [4]: -0.068
Bliss excess [5]: 0.033
Bliss excess [6]: -0.0271
Bliss excess [7]: 0.044
Bliss excess (SJSA-1 (Osteosarcoma)): -0.0247
Bliss excess [8]: -0.0069
Bliss excess [9]: -0.0376
Bliss excess [10]: -0.0186
Bliss excess [11]: 0.0214
Bliss excess [12]: -0.0346
Bliss excess (NCI-H2731 (Mesothelioma)): -0.0484
Bliss excess [13]: -0.0637
Bliss excess [14]: 0.0204
Bliss excess [15]: 0.0494
Bliss excess [16]: -0.0316
Bliss excess [17]: -0.0201

CC1(C)CCC(CN2CCN(c3ccc(C(=O)NS(=O)(=O)c4ccc(NCC5CCOCC5)c([N+](=O)[O-])c4)c(Oc4cnc5[nH]ccc5c4)c3)CC2)=C(c2ccc(Cl)cc2)C1 [Venetoclax] + CCN(CCO)CCCOc1ccc2c(Nc3cc(CC(=O)Nc4cccc(F)c4)[nH]n3)ncnc2c1 [AZD2811] (first compound max 1 µM, 7x7, partner max 1 µM)
Bliss excess [1]: 0.0158
Bliss excess [2]: 0.0626
Bliss excess [3]: -0.0299
Bliss excess (M059J (Glioblastoma)): -0.0687
Bliss excess [4]: 0.104
Bliss excess [5]: 0.138
Bliss excess [6]: 0.0136
Bliss excess [7]: -0.0927
Bliss excess (SJSA-1 (Osteosarcoma)): -0.0214
Bliss excess [8]: -0.0165
Bliss excess [9]: -0.0316
Bliss excess [10]: -0.0072
Bliss excess [11]: 0.0042
Bliss excess [12]: -0.0106
Bliss excess (NCI-H2731 (Mesothelioma)): -0.021
Bliss excess [13]: 0.0319
Bliss excess [14]: -0.0104
Bliss excess [15]: 0.0773
Bliss excess [16]: -0.0448
Bliss excess [17]: -0.0599
